For 14 compounds, IC50 and ED50 results are on record in patent US7812014B2, “Bicyclic 6-alkylidene-penems as β-lactamase inhibitors” (priority 2002, dated 2010).

One test deals with class C enzyme AmpC (Enterobacter cloacae, UniProt P05364). Kind of test: biochemical. Set-up: species or system Enterobacter cloaca. The procedure:
(§1) IC50 Determination for the Penem Inhibitor
(§2) β-Lactamase inhibitory activity of the penem inhibitors was determined spectrophotometrically as described by Bush et al., [Bush, K., Macalintal, C., Rasmussen, B. A., Lee, V. and Yang, Y. Antimicrobial Agents and Chemotherapy 1993, 37, 851]. Homogeneously purified class A β-lactamases TEM-1 from E. coli and Imi-1 from Enterobacter cloacae, class B enzyme CcrA from Bacteroides fragilis and class C enzyme AmpC from Enterobacter cloaca were employed in the assay. The enzyme concentrations for TEM-1, Imi-1, CcrA and AmpC were 4.3, 7.1, 1.2 and 2.1 nM, respectively. A wide range of inhibitor concentrations were prepared in 50 mM PO4, pH 7.0 to include the possible IC50 values. The substrate used to initiate the enzyme reaction was nitrocefin at 50 μg/ml in the same buffer as the inhibitor. Initially the enzyme and inhibitor (20 μl each) were preincubated for 10 minutes at 25° C. prior to the addition of 160 μl volume of nitrocefin. Initial rates of hydrolysis were monitored for 5 minutes at 495 nm using a Molecular Devices Spectra Max 250 with kinetic protocol of SoftMax Program. Readings from the Spectra Max 250 were exported and transferred to Microsoft Excel. The percent of inhibition of each inhibitor concentration was calculated based on the control enzyme activity. The inhibitor concentration that caused a 50% reduction in the enzymatic activity (IC50) was determined graphically.

The target in test [1] is class A β-lactamase TEM-1 (Escherichia coli, UniProt P62593). Put plainly: IC50 determination, β-lactamase inhibition (nitrocefin, spectrophotometric). Format: biochemical, E. coli. Particulars: enzyme 4.3 nM; 10 minutes preincubation at 25° C.; nitrocefin 50 μg/ml; pH 7.0. As to the method: as §1, §2
For another test, the target named is class B enzyme CcrA (Bacteroides fragilis, UniProt P25910). The description is as above. Format: biochemical. The conditions noted are these: enzyme 1.2 nM; 10 minutes preincubation at 25° C.; nitrocefin 50 μg/ml; pH 7.0; read-out: IC50 (nM) Class B Ccr. The procedure:
as §1, §2

The target in test [2] is class A β-lactamase Imi-1 (Enterobacter cloacae, UniProt Q46991). Described as above. Particulars: enzyme 7.1 nM; 10 minutes preincubation at 25° C.; nitrocefin 50 μg/ml; pH 7.0; read-out: IC50 (nM) Class A Imi. It is filed as biochemical. The procedure: as §1, §2
For test [3], the system named is Clinical isolates that have been adapted to cause infection in mice. Put plainly: In vivo antibacterial protection, 7 day survival of infected mice. Set-up: species or system mice strain CD-1. Particulars: Mus musculus, 168 h. An excerpt:
In Vivo Antibacterial Protection
Female mice strain CD-1, approximately 18-22 grams, were received from Charles River Laboratories and quarantined 7 days prior to use. In addition, mice may be rendered neutropenic using cytoxan.
Clinical isolates that have been adapted to cause infection in mice, are used in the experiment, including infections with strains of E. coli, K. pneumoniae, M. morganii, E. cloacae, S. marcescens, C. freundii, staphylococci, streptococci, P. aeruginosa and N. gonorrhoeae.
Mice are challenged by injecting 0.5 ml intraperitoneally or 0.05 ml intranasally of a predetermined bacterial inoculum suspended in broth, saline or hog gastric mucin (supplemented with dried bovine hemoglobin for N. gonorrhoeae). […] Antibacterial doses (dose concentration prepared by two fold serial dilutions of the antibiotic) are dissolved or suspended in 0.2% aqueous agar or methocel, phosphate buffered saline or an adjuvant are administered orally, subcutaneously or intravenously in the following manner: • a) Orally or subcutaneously: Dose volume of 0.5 ml administered ½ hr after infection. A second dose may be administered 3 hr. after infection for treatment of infections with more virulent organisms. • b) Intravenously: Dose volume of 0.2 ml, administered ½ hr. after infection. For the treatment of infections with more virulent organisms, more doses, up to 48 hr may be administered. (Intravenous dosing will not exceed 3 doses/24 hr period.) • c) Oral pretreatment: Under special circumstances, the pH of the stomach needs to be adjusted in order to increase the gastric stability of the antibiotic. For this purpose, 0.5 ml of phosphate buffered saline (pH7.8, 0.06M) (or specific approved adjuvant) is administered orally ½ hr after infection, followed 5 minutes later by 0.5 ml of antibiotic (also orally) contained in phosphate buffered saline (pH7.8, 0.06M). Animal Species
A detailed explanation as to the number of animals needed for the determination of in vivo efficacy follows: • A) Novel antibiotics are tested at 5 different dose levels with 5 mice per dose level at each of three routes of administration (oral, subcutaneous and intravenous). […] This would require 25 mice/route with 3 routes/antibiotic or 75 mice per novel compound tested. One to two novel antibiotics will be tested per experiment (75-150 mice) • B) The effectiveness of the new compound must be compared to that of a standard, or antibiotic of known effectiveness. Known or previously tested antibiotics are tested at 5 dose levels with 5 mice per dose level by a single route of administration, for a total of 25 mice/antibiotic. Usually 3-6 antibiotics will be tested per experiment. (75-150 mice). • C) Untreated controls—In each of the above tests, untreated animals are infected with 3 different concentrations of bacterial inoculum with 10 mice per concentration (30 mice total in each and every test). These untreated controls are used to determine and maintain the infection level between 10-100 LD50s as required for test to test comparison and validity. Determination of Protective Effects of Antibacterial Agents:
The protective effects of the antibacterial agent(s) are measured by the survival of the infected untreated as compared to the treated animals. […] A census of survivors is taken twice daily and at that time dead as well as moribund animals are removed. […] The test is performed three times on separate days to provide a statistically valid number of animals and to minimize variation in test results on a day to day and test to test basis.

The mark [4] stands for this setting: enzyme 2.1 nM, 10 minutes preincubation at 25° C., nitrocefin 50 μg/ml, pH 7.0, read-out: IC50 (nM) Class C AmpC.
Where [5] appears, read: Ratio of Piperacillin vs. Inhibitor not given, read-out: ED50.

Structures can show the parent of a compound that is named as a salt. Where two headings read alike, the source gives them in different places.

Sequence of class B enzyme CcrA (P25910 19-249): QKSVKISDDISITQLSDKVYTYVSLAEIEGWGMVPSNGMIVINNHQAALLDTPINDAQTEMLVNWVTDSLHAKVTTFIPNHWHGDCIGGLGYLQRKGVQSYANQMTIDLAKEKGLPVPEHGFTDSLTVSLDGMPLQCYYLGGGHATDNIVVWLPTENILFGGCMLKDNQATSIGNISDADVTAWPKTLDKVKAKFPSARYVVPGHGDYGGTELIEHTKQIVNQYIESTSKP
Sequence of class C enzyme AmpC (P05364 21-381): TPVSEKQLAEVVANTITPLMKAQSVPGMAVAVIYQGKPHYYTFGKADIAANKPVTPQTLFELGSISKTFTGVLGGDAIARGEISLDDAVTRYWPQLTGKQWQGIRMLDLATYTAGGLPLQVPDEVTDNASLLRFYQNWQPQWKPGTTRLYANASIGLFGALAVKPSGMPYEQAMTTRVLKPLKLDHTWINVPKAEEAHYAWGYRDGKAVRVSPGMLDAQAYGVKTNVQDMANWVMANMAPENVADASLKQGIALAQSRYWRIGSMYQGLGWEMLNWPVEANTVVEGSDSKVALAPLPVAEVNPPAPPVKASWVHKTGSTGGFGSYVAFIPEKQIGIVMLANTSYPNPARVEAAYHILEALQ
Sequence of class A β-lactamase Imi-1 (Q46991 28-292): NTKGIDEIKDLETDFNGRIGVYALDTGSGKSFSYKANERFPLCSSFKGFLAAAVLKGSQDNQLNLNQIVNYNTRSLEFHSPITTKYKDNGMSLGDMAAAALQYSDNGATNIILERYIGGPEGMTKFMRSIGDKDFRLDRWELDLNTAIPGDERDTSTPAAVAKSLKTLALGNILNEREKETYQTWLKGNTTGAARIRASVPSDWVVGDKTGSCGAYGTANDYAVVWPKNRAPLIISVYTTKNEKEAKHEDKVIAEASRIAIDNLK
Sequence of class A β-lactamase TEM-1 (P62593 24-286 limits assumed): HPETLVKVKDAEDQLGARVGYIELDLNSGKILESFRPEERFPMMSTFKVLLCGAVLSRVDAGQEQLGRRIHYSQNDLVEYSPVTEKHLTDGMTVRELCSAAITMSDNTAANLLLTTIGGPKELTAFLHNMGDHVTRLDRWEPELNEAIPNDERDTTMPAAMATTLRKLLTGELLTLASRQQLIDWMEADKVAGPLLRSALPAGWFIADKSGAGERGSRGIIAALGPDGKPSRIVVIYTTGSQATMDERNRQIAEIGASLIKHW

Take `O=C(O)C1=CS[C@@H]2/C(=C\c3cc4c(s3)CCN(Cc3cccnc3)C4)C(=O)N12` [Example 21]: the IC50 at class C enzyme AmpC (setting [4]) came out at 18 nM; in test [1] it was 9.8 nM; at class B enzyme CcrA, 280 nM; in test [2], 40 nM.

Consider `O=C([O-])C1=CS[C@@H]2/C(=C\c3cc4n(n3)CCO4)C(=O)N12.[Na+]` [Example 33, (5R)(6Z)-6-(2,3-Dihydropyrazolo[5,1-b]oxazol-6-ylmethylene)-7-oxo-4-thia-1-azabicyclo[3.2.0]hept-2-ene-2-carboxylic acid, sodium salt], for which the 50% effective dose (ED50) in test [3] (setting [5]) is above 64 mg/kg. The IC50 at class C enzyme AmpC was 0.85 nM; in test [1], 1.1 nM; on class B enzyme CcrA, 41 nM; in test [2] it was 59 nM.

On to `O=C(O)C1=CSC2C(=Cc3cn4c(n3)CCCCC4)C(=O)N12` (stereo not shown) [Example 19, 7-Oxo-6-(6,7,8,9-tetrahydro-5H-imidazo[1,2-a]azepin-2-ylmethylene)-4-thia-1-aza-bicyclo[3.2.0]hept-2-ene-2-carboxylic acid], for which the median effective dose (ED50) in test [3] (Ratio of Piperacillin vs. Inhibitor 4:1, read-out: ED50) amounted to 59.2 mg/kg. The half-inhibitory concentration (IC50) stood at 4.6 nM at class C enzyme AmpC (setting [4]), 4.8 nM in test [1], 170 nM on class B enzyme CcrA and 2700 nM in test [2].

Regarding `CCOC(=O)N1CCc2sc(C=C3C(=O)N4C(C(=O)O)=CSC34)cc2C1` (stereo not shown) [Example 18, 2-(2-Carboxy-7-oxo-4-thia-1-aza-bicyclo[3.2.0]hept-2-en-6-ylidenemethyl)-6,7-dihydro-4H-thieno[3,2-c]pyridine-5-carboxylic acid ethyl ester], the concentration for half-maximal inhibition (IC50) turned out to be 9.2 nM at class C enzyme AmpC (setting [4]), 2.8 nM in test [1], 120 nM on class B enzyme CcrA and 50 nM in test [2].

As to `O=C(O)C1=CS[C@@H]2/C(=C\c3cnc4n3CCSC4)C(=O)N12` [Example 30, (5R),(6Z)-6-(5,6-Dihydro-8-H-imidazo[2,1-c][1,4]thiazin-3-ylmethylene)-7-oxo-4-thia-1-azabicyclo[3.2.0]hept-2-ene-2-carboxylic acid], the half-maximal inhibitory concentration (IC50) on class C enzyme AmpC (setting [4]) came to 2.5 nM; in test [1], 2.9 nM; on class B enzyme CcrA it was 7.8 nM; in test [2] it was 2300 nM.

Turning to `O=C(O)C1=CSC2C(=Cc3cc4c(s3)CCSC4)C(=O)N12` (stereo not shown) [Example 16, 6-(6,7-Dihydro-4H-thieno[3,2-c]thiopyran-2-ylmethylene)-7-oxo-4-thia-1-aza-bicyclo[3.2.0]hept-2-ene-2-carboxylic acid], the half-inhibitory concentration (IC50) at class C enzyme AmpC (setting [4]) was 4.2 nM; in test [1] it was 3.1 nM; at class B enzyme CcrA, 12 nM; in test [2] it was 25 nM.

For `CN1Cc2nc(/C=C3/C(=O)N4C(C(=O)O)=CS[C@H]34)cn2CC1=O` [Example 10, (5R),(6Z)-6-(7-Methyl-6-oxo-5,6,7,8-tetrahydro-imidazo[1,2-a]pyrazin-2-ylmethylene)-7-oxo-4-thia-1-aza-bicyclo[3.2.0]hept-2-ene-2-carboxylic acid sodium salt], the IC50 worked out at 3 nM on class C enzyme AmpC (setting [4]), 10 nM in test [1], 140 nM on class B enzyme CcrA and 65 nM in test [2].

`CC(=O)N1CCc2sc(/C=C3/C(=O)N4C(C(=O)[O-])=CS[C@H]34)cc2C1.[Na+]` (single isomer, unassigned) [Example 34, Sodium salt]: the IC50 at class C enzyme AmpC (setting [4]) turned out to be 6.5 nM; in test [1] it was 4.2 nM; on class B enzyme CcrA it was 99 nM; in test [2] it was 34 nM.

On to `O=C(O)C1=CS[C@@H]2/C(=C\c3cc4n(n3)CCOC4=O)C(=O)N12` [Example 14, (5R,6Z)-7-oxo-6-[(4-oxo-6,7-dihydro-4H-pyrazolo[5,1-c][1,4]oxazin-2-yl)methylene]-4-thia-1-azabicyclo[3.2.0]hept-2-ene-2-carboxylic Acid], for which the IC50 came to 3.8 nM at class C enzyme AmpC (setting [4]), 2.5 nM in test [1], 26 nM on class B enzyme CcrA and 68 nM in test [2].

On to `O=C(O)C1=CSC2C(=Cc3cc4c(s3)CCOC4)C(=O)N12` (stereo not shown) [Example 15, 6-(6,7-Dihydro-4H-thieno[3,2-c]pyran-2-ylmethylene)-7-oxo-4-thia-1-aza-bicyclo[3.2.0]hept-2-ene-2-carboxylic acid], for which the IC50 was 3.8 nM on class C enzyme AmpC (setting [4]), 1.2 nM in test [1], 14 nM at class B enzyme CcrA and 8.6 nM in test [2].

Consider `O=C([O-])C1=CS[C@@H]2/C(=C\c3cc4n(n3)CCS4)C(=O)N12.[Na+]` [Example 32, (5R)(6Z)-6-(2,3-Dihydropyrazolo[5,1-b]thiazol-6-ylmethylene)-7-oxo-4-thia-1-azabicyclo[3.2.0]hept-2-ene-2-carboxylic acid, sodium salt], for which the 50% effective dose (ED50) in test [3] (setting [5]) amounted to 46 mg/kg.

In the case of `O=C(O)C1=CS[C@@H]2/C(=C\c3cn4c(n3)CN(Cc3ccccc3)CC4)C(=O)N12` [Example 20, (5R),(6Z)-6-(7-Benzyl-5,6,7,8-tetrahydroimidazo[1,2-a]pyrazin-2-ylmethylene)-7-oxo-4-thia-1-azabicyclo[3.2.0]hept-2-ene-2-carboxylic acid, sodium salt], the 50% inhibitory concentration (IC50) amounted to 3.1 nM at class C enzyme AmpC (setting [4]), 1.4 nM in test [1], 18 nM at class B enzyme CcrA and 9.6 nM in test [2].

In the case of `O=C(O)C1=CS[C@@H]2/C(=C\c3cc4n(n3)CCC4)C(=O)N12` [Example 8, (5R),(6Z)-6-(5,6-Dihydro-4H-pyrrolo[1,2-b]pyrazol-2-ylmethylene)-7-oxo-4-thia-1-azabicyclo[3.2.0]hept-2-ene-2-carboxylic acid, sodium salt], the 50% inhibitory concentration (IC50) was determined as 1.5 nM on class C enzyme AmpC (setting [4]), 1.2 nM in test [1], 14 nM on class B enzyme CcrA and 50 nM in test [2].

In the case of `O=C([O-])C1=CS[C@@H]2/C(=C\c3cc4n(n3)CSCC4)C(=O)N12.[Na+]` [Example 28, (5R)(6Z)-6-(4,5-Dihydro-6-thia-1,7a-diazainden-2-ylmethylene)-7-oxo-4-thia-1-azabicyclo[3.2.0]hept-2-ene-2-carboxylic acid, sodium salt], the ED50 in test [3] (setting [5]) worked out at 31 mg/kg.

What is called IC50 is the concentration at which inhibition is half-maximal. The term ED50 denotes the midpoint of the dose-response relation.
